Here are results for 3 compounds from patent US6642265B1, “Thrombopoietin mimetics” (SmithKline Beecham Corporation, priority 2002, dated 2003).

As usually defined, the melting point is the temperature of the solid-liquid transition. A word on the EC50: it is the concentration needed to bring the measured effect to its halfway point.

For one series, the target named is T1, TPO receptor (Homo sapiens, UniProt P40238).
T1 construct: expressed in transfected cells; host or cells: murine BaF3 cells
T1 sequence (P40238 26-635): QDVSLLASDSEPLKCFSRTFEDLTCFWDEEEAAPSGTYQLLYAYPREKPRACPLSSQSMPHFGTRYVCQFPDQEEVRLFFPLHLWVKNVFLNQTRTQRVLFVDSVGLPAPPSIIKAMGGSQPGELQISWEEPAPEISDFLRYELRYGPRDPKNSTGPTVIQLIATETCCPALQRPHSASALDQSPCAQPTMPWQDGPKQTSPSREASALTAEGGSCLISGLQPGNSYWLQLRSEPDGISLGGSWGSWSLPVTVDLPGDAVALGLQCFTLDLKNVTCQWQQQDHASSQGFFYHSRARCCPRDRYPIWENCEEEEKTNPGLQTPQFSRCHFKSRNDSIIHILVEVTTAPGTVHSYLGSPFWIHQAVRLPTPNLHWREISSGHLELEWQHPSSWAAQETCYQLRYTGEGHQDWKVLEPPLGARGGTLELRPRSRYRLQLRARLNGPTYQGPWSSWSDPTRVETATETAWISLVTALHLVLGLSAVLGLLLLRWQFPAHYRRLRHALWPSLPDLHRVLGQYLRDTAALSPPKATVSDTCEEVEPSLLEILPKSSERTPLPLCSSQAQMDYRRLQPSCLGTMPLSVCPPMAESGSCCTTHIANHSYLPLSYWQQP
Put plainly: Luciferase assay in TPO-responsive BaF3 cell line. The class given is cell-based. To be noted: TPO-responsive murine BaF3 cells. As to the method:
Compounds of the present invention were tested for potency as mimetics of the TPO receptor in a Luciferase assay such as described in Lamb, et al., Nucleic Acids Research 23: 3283-3289 (1995) and Seidel, et al., Proc. Natl. Acad. Sci. USA 92: 3041-3045 (1995) by substituting a TPO-responsive BaF3 cell line (Vigon et a). Proc. Natl. Acad. Sci. USA 1992, 89, 5640-5644) for the HepG2 cells utilized therein. The murine BaF3 cells express TPO receptors and closely match the pattern of STAT (signal transducers and activators of transcription) activation observed in primary murine and human bone marrow cells.

As to `Cc1nn(-c2ccc(OCc3ccccc3)cc2)c(O)c1N=Nc1ccc(C(=O)O)cc1O` [Example 3, 4-{[1-(4-Benzyloxyphenyl)-5-hydroxy-3-methyl-1H-pyrazol-4-yl]azo}-3-hydroxybenzoic Acid], the melting point is 258 to 260 °C (dec.). Take `Cc1ccc(-n2nc(C)c(N=Nc3ccc(C(=O)O)cc3O)c2O)cc1C` [Example 6, 4-{[1-(3,4-Dimethylphenyl)-5-hydroxy-3-methyl-1H-pyrazol-4-yl]azo}-3-hydroxybenzoic Acid]: it took 1800 nM to reach a half-maximal effect at TPO receptor (EC50). On TPO receptor (efficacy printed with the EC50), the “activity relative to TPO in the luciferase assay” value is recorded as 50 % TPO.

As to `Cc1ccc(-n2nc(C)c(N=Nc3cc(Cl)cc(S(=O)(=O)O)c3O)c2O)cc1C` [Example 11, 5-Chloro-3-{[1-(3,4-dimethylphenyl)-5-hydroxy-3-methyl-1H-pyrazol-4-yl]azo}-2-hydroxybenzenesulfonic Acid], the melting point was 240 °C (dec.).
